The values below come from patent publication US9180171B2, “Method of regulating fertilizing ability using cyclic ADP-ribose and CD38” (Industrial Cooperation Foundation Chonbuk National …, priority 2011, dated 2015).

Entries after “also recorded” stand apart in the source; their conditions may differ.

For test [1], the system named is sperm. Description: Test for motility of sperm by CD38. In kind it is cell-based. As to conditions: for CD38-induced increase in motility of sperm with inhibitor: sperm treated with inhibitor, then CD38; for motility of sperm: sperm treated with CD38. The procedure:
The relationship between CD31 activation by CD38 and sperm motility was analyzed. […] Also, it was seen that, when sperm were treated with the ERK1/2 inhibitor PD98059 and the ras-GTP inhibitor (FTI-277) and then treated with CD38, the increase in the motility of the sperm was inhibited.

Test [2] concerns sperm. Description: Acrosome reaction of sperm by CD38 (ConA-FITC, A23187). In kind it is cell-based. Particulars: for acrosome reaction of CD38-treated sperm with inhibitor: inhibitor of downstream signaling of CD31. The procedure: To examine the acrosome reaction of sperm, ConA-FITC binding specifically to the acrosome of sperm was used. The isolated sperm were allowed to react with purified CD38 at 37° C. for 2 hours, and then were treated for 40 min with calcium ionophore A23187 that increases calcium in sperm to induce the acrosome reaction of sperm. Then, the sperm were placed on a glass slide, and the acrosome reaction of the sperm was examined with a fluorescence microscope.

The target in a further test is T1, CD31 (Homo sapiens, UniProt P16284).
T1 construct: endogenous in cells; host or cells: isolated sperm
Description: Test for activation of CD31 in sperm by CD38 (immunoprecipitation, Western blot). It is filed as cell-based. Particulars: sperm treated with 600 ng/ml CD38 for 0, 15, 30 min. Here is the method: In order to test the activation of CD31 in sperm, the isolated sperm were treated with 600 ng/ml CD38 for each of 0 min, 15 min and 30 min, and then buffer was added thereto to lyse the cells. Also, CD31 antibody was used to perform immunoprecipitation, and Western blot was performed using each antibody in order to examine the phosphorylation of CD31 and to examine interacting proteins.
On the technique in general: Immunoblotting shows a protein as a band on a membrane.

The test system of test [3] is sperm. Description: Measurement of calcium in sperm cells (fluo-3, confocal microscopy). It is filed as cell-based, human. The procedure:
In order to measure intracellular calcium release, the sperm suspension pretreated with fluo-3 (molecular probe, USA) was titrated in a confocal dish (SPL, Seoul, Korea) coated with poly-L-lysine (Sigma-Aldrich, USA) and was allowed to react in a CO2 incubator for 20 minutes to attach the cells. Calcium in the cells was measured by a confocal microscopy system (Nikon) using the method of Tsien et al. (Tsien et al., Nature 295, 68-71 (1982)).

Test [4] relates to sperm. Description: Test for sperm motility by prostasome (CASA). Particulars: prostasome-bound sperm treated with progesterone. In kind it is cell-based, human. Here is the method:
Sperm motility was measured using a CASA (computer assisted sperm analysis) system (IVOS, Hamilton Thorne Biosciences, USA). The sperm suspension was titrated onto a sperm analysis slide (2X-CEL, Hamilton Thorne Biosciences, USA) having a depth of 20 μm and was automatically photographed using a 4× magnification lens, followed by analysis.

Test [5] concerns sperm. Description: Formation of cGDPR, cyclic ADP-ribose and NAADP in prostasome-bound or -unbound sperm. It is filed as cell-based, human. The procedure: The isolated sperm were diluted with a weakly alkaline buffer or fusion buffer (150 mM NaCl, 1 mM CaCl2, 1 mM MgCl2, 5 mM glucose with either 2 mM Hepes (pH 8.0) or 20 mM MES (pH 5.0, fusion buffer)) containing 0.32 M sucrose. The dilution was mixed with prostasome such that the ratio of prostasome:sperm protein was 2:1. The mixture was allowed to react at 37° C. for 15 minutes. The reaction product was centrifuged at 600×g for 10 minutes, and the precipitate was collected, resuspended in BWW buffer and used in the experiment. […] Also, the binding of prostasome was the highest at a pH of 5.0 similar to the internal acidity of the female vagina and decreased toward alkaline pH values. […] In order to examine the formation of cyclic ADP-ribose and nicotinic acid adenine dinucletide phosphate which are typical metabolites of CD38, the sperm to which prostasome was unbound or bound was treated with progesterone, after which the level of each molecule in the sperm was measured at varying points of time.

The test system of the next test is mouse oocytes. Description: In vitro fertilization test. As to conditions: prostasome-bound sperm pretreated with antagonist. In kind it is cell-based, mice. Here is the method: In vitro fertilization was performed using a modification of the method of Ren et al. (Ren et al., Nature 413, 603-609 (2001)). 10-12-week-old mice were injected with pregnant mare serum gonadotropin (PMSG) (5 IU; Sigma-Aldrich), and after 48 hours, injected with human chorionic gonadotropin (hCG) (5 IU; Sigma-Aldrich). 14 hours after the final injection, the uterine tube was removed and perfused with IVF medium (Medicult, USA), and the released oocytes were collected using a low-magnification microscope. In order to collect sperm, the epididymis of male mice was removed and cut into small pieces with scissors in the same medium, and swum-out sperm were collected. The number of cells in the sperm was measured, and the sperm were used in the test.

On to `COC(=O)[C@H](CCSC)NC(=O)c1ccc(NC[C@@H](N)CS)cc1-c1ccccc1` [FTI-277], for which the “CD38-induced increase in motility of sperm with inhibitor” value in the test with sperm [1] was “inhibited”.

On to “CD38: purified water-soluble CD38 (sCD38), ADP-ribosyl cyclase, a cell membrane protein”, for which the “acrosome reaction of sperm” value with sperm [2] (sperm with purified CD38 at 37° C. for 2 hours, then A23187 40 min) is “significantly increased”. The “phosphorylation of CD31” value with CD31 is listed as “increased with time; also recorded: increased over time”. For the same compound, the motility of sperm result was “significantly increased” in the test with sperm [1] and “increased” in the test with sperm [1] (listed as sCD38).

For the compound `COc1cccc(-c2cc(=O)c3ccccc3o2)c1N` [PD98059], the “acrosome reaction of CD38-treated sperm with inhibitor” value in the test on sperm [2] is reported as “inhibited”. In the test on sperm [1], the “CD38-induced increase in motility of sperm with inhibitor” value is listed as “inhibited”.

Regarding `CN(C)S(=O)(=O)c1ccc2c(c1)/C(=C/c1cc3c([nH]1)CCCC3)C(=O)N2` [Su6656], the “acrosome reaction of CD38-treated sperm with inhibitor” value in the test on sperm [2] is on record as “inhibited”.

For `CC(=O)[C@H]1CC[C@H]2[C@@H]3CCC4=CC(=O)CC[C@]4(C)[C@H]3CC[C@]12C` [progesterone], the “intracellular calcium release by progesterone” value in the test on sperm [3] (prostasome-bound sperm) is reported as “intracellular calcium release immediately occurred”. In addition, in the test with sperm [3] (prostasome-unbound sperm), the “intracellular calcium reaction by progesterone” value is “immediate calcium reaction”. For the same compound, the “increase of sperm motility” value with sperm [4] was “about 2 times”. Moreover, in the test on sperm [5] (prostasome-bound or -unbound sperm treated with progesterone), the “formation of nicotinic acid adenine dinucletide phosphate in sperm” value is recorded as “not formed”. In the test on sperm [5] (prostasome-bound sperm treated with progesterone, within several seconds), the “synthesis of cyclic ADP-ribose in sperm” value is listed as “rapidly increased”.

On to `N=c1c2nc(Br)n3c2ncn1C1OC(COP(=O)(O)OP(=O)(O)OCC2OC3C(O)C2O)C(O)C1O` (stereo not drawn) [8-Br-cADPR], for which the “pattern of a continuous increase in calcium by progesterone” value with sperm [3] (prostasome-bound sperm pretreated with antagonist, then progesterone) is recorded as “inhibited”. For the same compound, in the test on mouse oocytes, the “reduction of fertilizing ability” value is recorded as “about 70%”.
